Assays:
RXRα = assay: BMM anti-RXRα Western blot; type: cell-based, Murine; conditions: polyI:C and LG268 treatment, 24 hrs; FIG. 8e
ZF5 = assay: BMM Q-PCR: ZF5 mRNA; type: cell-based, Murine; conditions: polyI:C and LPS; data not shown
RXRα promoter region = assay: ChIP of Hes1 and HDAC1 in BMMs; type: cell-based, Murine; conditions: polyI:C 1 μg/ml 1, 3 and 6 hours; FIG. 9e,f
Procedure: FIG. 9: PolyI:C transcriptionally represses RXRα through recruitment of transcriptional repression machinery. a, BMMs were stimulated with media or polyI:C (1 μg/ml) for 2 hrs, followed by actinomycin D (ActD) (5 μg/ml) for 0, 15, 30, 60, 120 min. BMMs were stimulated with polyI:C (1 μg/ml) for 4 hrs or 8 hrs. RNA was analyzed by Q-PCR. b, Diagram of RXRα promoter based on promoter analysis software (MatInspector). BMMs were stimulated with LPS (10 ng/ml) or polyI:C (1 μg/ml) for 4 hrs. RNA was analyzed by Q-PCR. Wildtype, IRF3^−/− and IFNAR^−/− BMMs were stimulated with polyI:C (1 μg/ml) for 4 hrs. RNA was analyzed by Q-PCR. c, pCMV-RAW 264.7 cells (MT) or pCMV-Hes1-RAW 264.7 cells (Hes1) RNA was analyzed by Q-PCR. d, RAW264.7 cells transfected with siNS or siHes1 duplex oligos were stimulated with polyI:C (1 μg/ml) for 8 hours. RNA was analyzed by Q-PCR. e, f, BMMs were stimulated with polyI:C (1 μg/ml) for 1, 3 and 6 hours. Following stimulation, chromatin immunoprecipitation (ChIP) was performed with anti-Hes1 or anti-HDAC1 antibodies on sonicated samples, washed thoroughly and analyzed by PCR/agarose gel electrophoresis. PCR products on gel are quantified by ImageJ, normalized to Input. g, BMMs were pre-treated with Trichostatin A (TSA) (50 ng/ml) overnight and then stimulated with polyI:C (1 μg/ml) for 4 and 8 hrs. RNA was analyzed by Q-PCR. […]

CRBPII = assay: RAW 264.7 Q-PCR: CRBPII; type: cell-based, murine
[1] = test system: PXR/RXR ER6 binding region of CYP3A4; assay: ChIP with anti-RXRα antibody at CYP3A4; type: cell-based, human; conditions: combinatorial treatment with rifampicin 25 μM and polyI:C, 24 hours; FIG. 10g and h
Procedure: FIG. 10: PolyI:C transcriptional repression of RXRα is critical for repression of nuclear receptor target genes. a, Wildtype, IRF3^−/− and IFNAR^−/− BMMs were stimulated with Control (DMSO), or LG268 (10 nM) with or without polyI:C (1 μg/ml). RNA was analyzed by Q-PCR. b, pCMV-RAW 264.7 cells (MT) or pCMV-Hes1-RAW 264.7 cells (Hes1) were stimulated with Control (DMSO) and 9cRA with or without polyI:C (1 μg/ml) for 24 hrs. RNA was analyzed by Q-PCR. c, RAW264.7 cells transfected with siNS or siHes1 duplex oligos were stimulated with Control (DMSO) and 9cRA (10 μM) with or without polyI:C (1 μg/ml) for 24 hours. RNA was analyzed by Q-PCR. d, pBabe-RAW 264.7 cells (Raw_MT) and pBabe-RXRα-RAW264.7 cells (Raw-RXRα) were stimulated with Control (DMSO) or LG268 (10 nM) with or without polyI:C (1 μg/ml) for 24 hrs. RNA was analyzed by Q-PCR. e, pBabe-Huh7 cells (Huh7 MT) and pBabe-RXRα-Huh7 cells (Huh7-RXRα) were stimulated with Control (DMSO) and rifampicin (25 μM) with or without polyI:C (2 μg/ml, transfected). RNA was analyzed by Q-PCR. f, pBabe-Huh7 cells (Huh7 MT) and pBabe-RXRα-Huh7 cells (Huh7_RXRα) were stimulated with Control (DMSO) and ASA (20 μg/ml) with or without polyI:C (2 μg/ml, transfected). RNA was analyzed by Q-PCR. g,h, BMMs were stimulated with rifampicin (25 μM) and polyI:C (1 μg/ml) for 24 hours. […] PCR products on gel are quantified by ImageJ, normalized to Input. […]

Huh7 cells = assay: Rhodamine 123 assay, mitochondrial membrane potential; type: cell-based, human; conditions: Huh7 cells co-treated with ASA 20 μg/ml and polyI:C 1 μg/ml transfected, 24 hours; mock-transfected vs RXRα overexpressing
Procedure: FIG. 15: PolyI:C potentiation of ASA-induced mitochondrial damage. pBabe-Huh7 cells (Huh7_MT) and pBabe-RXRα-Huh7 cells (Huh7 RXRα) were stimulated with Control (DMSO) and ASA (20 μg/ml) with or without polyI:C (1 μg/ml, transfected) for 24 hours. Cells were treated with 5 μg/ml of rhodamine 123 (Invitrogen) for 30 min, trypsinized and resuspended in PBS. Flow cytometry was done to determine rhodamine 123 uptake.

Cyp3A11 = assay: Liver RNA Q-PCR, polyI:C/APAP-treated mice: Cyp3A11; conditions: polyI:C 100 μg i.v.; FIG. 1C

polyinosinic:polycytidylic acid [polyI:C]
RXRα protein levels in IRF3^−/− BMMs (RXRα): significantly higher than in WT or IFNAR^−/− BMMs
ZF5 mRNA levels (ZF5): unaffected
recruitment of Hes1 and HDAC1 (ChIP) (RXRα promoter region): promotes specific recruitment of Hes1 and HDAC1 to the RXRα promoter region
9cRA induction of CRBPII (CRBPII): unable to repress 9cRA induction of CRBPII
RXRα present on CYP3A4 promoter (ChIP) [1]: maximal loss of RXRα in the PXR/RXR ER6 binding region of CYP3A4
mitochondrial membrane potential (rhodamine 123) (Huh7 cells): loss of mitochondrial membrane potential in mock-transfected Huh7 cells co-treated with ASA and polyI:C, but not in Huh7 cells overexpressing RXRα
basal Cyp3A11 mRNA level in liver (Cyp3A11): potently repressed

— patent publication US20090181910A1, “METHOD OF PREVENTION AND ALLEVIATION OF TOXICITY BY MODULATION OF IRF3” (priority 2006, published 2009)
